Measurements from ChEMBL document CHEMBL1121707, “Synthesis of 2'-deoxy-L-fucopyranosylcarminomycinone and -epsilon-pyrromycinone as well as 2'-deoxy-D-erythro-pentopyranosyldaunomycinone, -carminomycinone, and -epsilon-pyrromycinone” (1981).

Columns and labels:
L1210 [1] = assay: Average weight change after administration at 3.2 mg/kg intraperitoneally in mice on day 1 in experiment 2; format: functional, Mus musculus; details: route intraperitoneal
L1210 [2] = assay: Average weight change after administration at 51.2 mg/kg intraperitoneally in mice on day 1 in experiment 2; format: functional, Mus musculus; details: route intraperitoneal
L1210 [3] = assay: Average weight change after administration at 0.4 mg/kg intraperitoneally in mice on day 1 in experiment 1; format: functional, Mus musculus; details: route intraperitoneal
Bacillus subtilis [4] = assay: Tested for antibacterial effect against Bacillus subtilis-8 at dose 6.25 ug/mL; format: functional
Bacillus subtilis [5] = assay: Tested for antibacterial effect against Bacillus subtilis-8 at dose 3.1 ug/mL; format: functional
L1210 [6] = assay: Average weight change after administration at 6.4 mg/kg intraperitoneally in mice on day 1 in experiment 2; format: functional, Mus musculus; details: route intraperitoneal
Bacillus subtilis [7] = assay: Tested for antibacterial effect against Bacillus subtilis-8 at dose 12.5 ug/mL; format: functional
L1210 [8] = assay: Average weight change after administration from 1-9 days at 12.8 mg/kg intraperitoneally in BDF1 mice; format: functional, Mus musculus; details: route intraperitoneal
L1210 [9] = assay: Average weight change after administration at 1.6 mg/kg intraperitoneally in mice on day 1 in experiment 2; format: functional, Mus musculus; details: route intraperitoneal
L1210 [10] = assay: Average weight change after administration at 12.8 mg/kg intraperitoneally in mice on day 1 in experiment 1; format: functional, Mus musculus; details: route intraperitoneal
L1210 [11] = assay: Average weight change after administration from 1-9 days at 0.8 mg/kg intraperitoneally in BDF1 mice; format: functional, Mus musculus; details: route intraperitoneal
L1210 [12] = assay: Average weight change after administration at 3.2 mg/kg intraperitoneally in mice on day 1 in experiment 1; format: functional, Mus musculus; details: route intraperitoneal
L1210 [13] = assay: Average weight change after administration at 0.8 mg/kg intraperitoneally in mice on day 1 in experiment 1; format: functional, Mus musculus; details: route intraperitoneal
L1210 [14] = assay: Average weight change after administration from 1-9 days at 1.6 mg/kg intraperitoneally in BDF1 mice; format: functional, Mus musculus; details: route intraperitoneal
L1210 [15] = assay: Average weight change after administration from 1-9 days at 3.2 mg/kg intraperitoneally in BDF1 mice; format: functional, Mus musculus; details: route intraperitoneal
L1210 [16] = assay: Average weight change after administration at 6.4 mg/kg intraperitoneally in mice on day 1 in experiment 1; format: functional, Mus musculus; details: route intraperitoneal
L1210 [17] = assay: Average weight change after administration from 1-9 days at 0.4 mg/kg intraperitoneally in BDF1 mice; format: functional, Mus musculus; details: route intraperitoneal
Bacillus subtilis [18] = assay: Tested for antibacterial effect against Bacillus subtilis-8 at dose 25 ug/mL; format: functional
L1210 [19] = assay: Average weight change after administration at 12.8 mg/kg intraperitoneally in mice on day 1 in experiment 2; format: functional, Mus musculus; details: route intraperitoneal
Bacillus subtilis [20] = assay: Tested for antibacterial effect against Bacillus subtilis-8 at dose 50 ug/mL; format: functional
L1210 [21] = assay: Average weight change after administration at 1.6 mg/kg intraperitoneally in mice on day 1 in experiment 1; format: functional, Mus musculus; details: route intraperitoneal
L1210 [22] = assay: Average weight change after administration from 1-9 days at 6.4 mg/kg intraperitoneally in BDF1 mice; format: functional, Mus musculus; details: route intraperitoneal
L1210 [23] = assay: Average weight change after administration at 25.6 mg/kg intraperitoneally in mice on day 1 in experiment 2; format: functional, Mus musculus; details: route intraperitoneal
L1210 [24] = assay: Tested for survivors on day 5 after administration at 0.4 mg/kg intraperitoneally in mice on day 1; format: functional, Mus musculus; details: route intraperitoneal
L1210 [25] = assay: Median survival time of treated to that of control after administration at 0.8 mg/kg intraperitoneally in BDF1 mice on day 1; format: functional, Mus musculus; details: route intraperitoneal
L1210 [26] = assay: Median survival time of treated to that of control after administration at 12.8 mg/kg intraperitoneally in BDF1 mice on day 1; format: functional, Mus musculus; details: route intraperitoneal
L1210 [27] = assay: Tested for survivors on day 5 after administration at 1.6 mg/kg intraperitoneally in mice on day 1; format: functional, Mus musculus; details: route intraperitoneal
L1210 [28] = assay: Tested for survivors on day 5 after administration at 6.4 mg/kg intraperitoneally in mice on day 1; format: functional, Mus musculus; details: route intraperitoneal
L1210 [29] = assay: Median survival time of treated to that of control after administration at 6.4 mg/kg intraperitoneally in BDF1 mice on day 1; format: functional, Mus musculus; details: route intraperitoneal
L1210 [30] = assay: Tested for survivors on day 5 after administration at 3.2 mg/kg intraperitoneally in mice on day 1; format: functional, Mus musculus; details: route intraperitoneal
L1210 [31] = assay: Average weight change after administration at 12.8 mg/kg intraperitoneally in mice on day 1; format: functional, Mus musculus; details: route intraperitoneal
L1210 [32] = assay: Median survival time of treated to that of control after administration at 3.2 mg/kg intraperitoneally in BDF1 mice on day 1; format: functional, Mus musculus; details: route intraperitoneal
L1210 [33] = assay: Average weight change after administration at 1.6 mg/kg intraperitoneally in mice on day 1; format: functional, Mus musculus; details: route intraperitoneal
L1210 [34] = assay: Average weight change after administration at 0.4 mg/kg intraperitoneally in mice on day 1; format: functional, Mus musculus; details: route intraperitoneal
L1210 [35] = assay: Tested for survivors on day 5 after administration at 12.8 mg/kg intraperitoneally in mice on day 1; format: functional, Mus musculus; details: route intraperitoneal
L1210 [36] = assay: Average weight change after administration at 0.8 mg/kg intraperitoneally in mice on day 1; format: functional, Mus musculus; details: route intraperitoneal
L1210 [37] = assay: Tested for survivors on day 5 after administration at 0.8 mg/kg intraperitoneally in mice on day 1; format: functional, Mus musculus; details: route intraperitoneal
L1210 [38] = assay: Median survival time of treated to that of control after administration at 1.6 mg/kg intraperitoneally in BDF1 mice on day 1; format: functional, Mus musculus; details: route intraperitoneal
L1210 [39] = assay: Average weight change after administration at 3.2 mg/kg intraperitoneally in mice on day 1; format: functional, Mus musculus; details: route intraperitoneal
L1210 [40] = assay: Median survival time of treated to that of control after administration at 0.4 mg/kg intraperitoneally in BDF1 mice on day 1; format: functional, Mus musculus; details: route intraperitoneal

CC(=O)[C@]1(O)Cc2c(O)c3c(c(O)c2[C@@H](O[C@H]2C[C@H](O)[C@H](O)[C@H](C)O2)C1)C(=O)c1c(O)cccc1C3=O
Average weight change (L1210 [1]): 0.2
Average weight change (L1210 [2]): -1.9
Average weight change (L1210 [3]): -0.8
Inhibition zone (Bacillus subtilis [4]): 19.5 mm
Inhibition zone (Bacillus subtilis [5]): 17.2 mm
Average weight change (L1210 [6]): 0.7
Inhibition zone (Bacillus subtilis [7]): 21.3 mm
Average weight change (L1210 [8]): -1.6
Average weight change (L1210 [9]): -0.6
Average weight change (L1210 [10]): -0.4
Average weight change (L1210 [11]): 2.3
Average weight change (L1210 [12]): -0.9
Average weight change (L1210 [13]): 1.2
Average weight change (L1210 [14]): 0.6
Average weight change (L1210 [15]): -0.3
Average weight change (L1210 [16]): -1.1
Average weight change (L1210 [17]): 0.6
Inhibition zone (Bacillus subtilis [18]): 21.5 mm
Average weight change (L1210 [19]): 0.3
Inhibition zone (Bacillus subtilis [20]): 21.5 mm
Average weight change (L1210 [21]): -0.8
Average weight change (L1210 [22]): 2.4
Average weight change (L1210 [23]): -1.2

C/C(=N\NC(=O)c1ccccc1)[C@]1(O)Cc2c(O)c3c(c(O)c2[C@@H](O[C@H]2C[C@H](O)[C@H](O)[C@H](C)O2)C1)C(=O)c1c(O)cccc1C3=O
Survivors (L1210 [24]): 6
T/C (L1210 [25]): 93%
T/C (L1210 [26]): 114%
Survivors (L1210 [27]): 6
Survivors (L1210 [28]): 6
Inhibition zone (Bacillus subtilis [4]): 10.3 mm
T/C (L1210 [29]): 107%
Survivors (L1210 [30]): 6
Average weight change (L1210 [31]): -0.3
Inhibition zone (Bacillus subtilis [7]): 12.8 mm
T/C (L1210 [32]): 93%
Average weight change (L1210 [33]): 2
Average weight change (L1210 [34]): 2.3
Survivors (L1210 [35]): 6
Average weight change (L1210 [36]): 1.5
Inhibition zone (Bacillus subtilis [18]): 13.8 mm
Survivors (L1210 [37]): 6
T/C (L1210 [38]): 100%
Average weight change (L1210 [39]): 1.9
T/C (L1210 [40]): 100%
Inhibition zone (Bacillus subtilis [20]): 15 mm
